Measured values as given in ChEMBL document CHEMBL1158868, “Bioactive and other sesquiterpenes from Chiloscyphus rivularis” (J Nat Prod, 1997).
≈ marks a conversion by molar mass, not a printed value. Calls of active or inactive are those of the source. The calls are words filed in the database; no cut-off is given here.

Assays:
Saccharomyces cerevisiae [1] = test: Antimicrobial activity against rad52 gene deficient and DNA repair deficient yeast RS322; format: functional
Saccharomyces cerevisiae [2] = test: Antimicrobial activity against rad gene expressing and DNA repair proficient wild type yeast RS188N; format: functional
Saccharomyces cerevisiae [3] = test: Antimicrobial activity against rad52.top1 gene deficient yeast RS321; format: functional
A549 = test: Cytotoxicity against human A549 cells; format: functional, cell-based
[4] = Cytotoxicity against human NCI60 cells; format: functional

`C=C(CO)C(=O)[C@H]1CCC2=CCC[C@H](C)[C@]21C` showed an IC12 (Saccharomyces cerevisiae [1]) of 75 µg/mL, an IC12 (Saccharomyces cerevisiae [2]) of 88 µg/mL and an IC12 (Saccharomyces cerevisiae [3]) of over 1000 µg/mL. The IC50 (A549) was 2 µg/mL (≈ 8.53 µM) and the GI50 [4] was 10 µM.
`C=C(C)C(=O)[C@H]1CC(=O)C2=CC(=O)C[C@H](C)[C@]21C` showed an IC12 (Saccharomyces cerevisiae [1]) of over 500 µg/mL.
With `C[C@H]1CCC=C2CC[C@H](C(=O)C3(CO)CO3)[C@@]21C` (stereo partly specified) the Activity (Saccharomyces cerevisiae [1]) was “inactive”.
`C[C@H]1CC[C@@H](O)[C@]23CC[C@H](C(=O)O2)[C@]13C` [RIVULALACTONE] gave an IC12 (Saccharomyces cerevisiae [1]) of over 500 µg/mL.
`C=C(CO)C(=O)[C@H]1CCC2=CC(=O)C[C@H](C)[C@]21C` showed an IC12 (Saccharomyces cerevisiae [1]) of over 500 µg/mL.
For `C[C@H]1CCC=C2CC[C@H](C(=O)C(O)(CO)CO)[C@@]21C`, the Activity (Saccharomyces cerevisiae [1]) was “inactive”.
With `C=C(C)C(=O)[C@H]1CCC2=CC(=O)C[C@H](C)[C@]21C` the IC12 (Saccharomyces cerevisiae [1]) was over 500 µg/mL.
